# Key:
# [1] = tested on: pituitary cells from 21 day old rats; assay: In vitro pituitary incubate assay (release of LH and FSH); assay type: cell-based, rat; details: for FSH released into medium (ng/ml) ± SEM / LH ng/ml medium ± SEM / FSH ng/ml medium ± SEM: mean of 9
# Method: The data in Tables IV and V are from the in vitro assay of the peptides with the pituitary incubate. This assay measures the release of LH and FSH in an in vitro system with pituitary cells from 21 day old rats. See, Bowers, C. Y. et al. on the inhibitory effects of leutinizing hormone releasing hormone analogs. Endocrinology, 106: 674 (1980).
# The abbreviations are as follows: sc-subcutaneous, SEM-standard error of the mean; NS-not significant; ng-nanogram, and ml-milliliter. The p value represents the population coefficient .rho.(rho) which signifies whether a sample coefficient is significant or a chance deviation from zero.
# 21 day old female rats = assay: In vivo assay in rats for release of LH and FSH; set-up: species or system rat; details: for Serum FSH ng/ml SEM / Serum LH ng/ml SEM: Table IX, blood sample at ±60 minutes; for Serum FSH ng/ml SEM / Serum LH ng/ml SEM / FSH ng/ml Serum ± SEM at +120 min / LH ng/ml Serum ± SEM at +120 min: mean of 6; for +2 hrs LH ± SEM ng/ml serum / FSH ± SEM ng/ml serum (+2 hrs) / +3 hrs LH ± SEM ng/ml serum / FSH ± SEM ng/ml serum (+3 hrs): Table XI, mean 5-6; for FSH ng/ml Serum ± SEM at +120 min / LH ng/ml Serum ± SEM at +120 min: Table X
# Method: In vivo rat assay performed by a modification of the method of Bowers, C. Y. et al. Endocrinology, 106, 674 (1980). 21 day old female rats were injected sc with saline or peptide. Blood samples for the RIAs of LH and FSH were collected at +15, +60, +120, or +180 minutes. (Tables VI-XI).
# [2] = Table IV, dosage 0.03 ng/ml medium
# [3] = Table IV, dosage 0.1 ng/ml medium
# [4] = Table IV, dosage 0.3 ng/ml medium
# [5] = Table IV, dosage 1.0 ng/ml medium
# [6] = Table V, dosage .03 ng/ml medium
# [7] = Table V, dosage .10 ng/ml medium
# [8] = Table V, dosage .30 ng/ml medium
# [9] = Table VI, 15 ng/rat sc, mean of 9
# [10] = Table VI, 50 ng/rat sc, mean of 9
# [11] = Table VI, 150 ng/rat sc, mean of 9
# [12] = Table VIII first section (time not given), 15 ng/rat sc, mean of 5-6
# [13] = Table VIII first section (time not given), 50 ng/rat sc, mean of 5-6
# [14] = Table VIII first section (time not given), 150 ng/rat sc, mean of 5-6
# [15] = Table VIII, ±60 min after injection, 150 ng/rat sc, mean of 5-6
# [16] = at 0.1 ng, statement on Table IV
# [17] = Table VI, 1.75 ng/rat sc, mean of 9
# [18] = Table VI, 5 ng/rat sc, mean of 9
# [19] = Table VIII, ±60 min after injection, 15 ng/rat sc, mean of 5-6
compound,measurement,setting,value
"LHRH: peptide hormone known as the leutinizing hormone releasing hormone, exists naturally in the hypothalamus",FSH released into medium (ng/ml) ± SEM,[1]; [2],638 ± 292
same,LH ng/ml medium ± SEM,[1]; [2],52 ± 20 ng/mL
same,FSH released into medium (ng/ml) ± SEM,[1]; [3],266 ± 235
same,LH ng/ml medium ± SEM,[1]; [3],214 ± 30 ng/mL
same,FSH released into medium (ng/ml) ± SEM,[1]; [4],4556 ± 752
same,LH ng/ml medium ± SEM,[1]; [4],771 ± 162 ng/mL
same,FSH released into medium (ng/ml) ± SEM,[1]; [5],8063 ± 943
same,LH ng/ml medium ± SEM,[1]; [5],1434 ± 156 ng/mL
same,FSH ng/ml medium ± SEM,[1]; [6],598 ± 137 ng/mL
same,LH ng/ml medium ± SEM,[1]; [6],33 ± 24 ng/mL
same,FSH ng/ml medium ± SEM,[1]; [7],794 ± 52 ng/mL
same,LH ng/ml medium ± SEM,[1]; [7],206 ± 42 ng/mL
same,FSH ng/ml medium ± SEM,[1]; [8],2709 ± 252 ng/mL
same,LH ng/ml medium ± SEM,[1]; [8],892 ± 92 ng/mL
same,Serum FSH ng/ml SEM,21 day old female rats; 50 ng/rat sc,909 ± 118 ng/mL
same,Serum LH ng/ml SEM,21 day old female rats; 50 ng/rat sc,5 ± 0.5 ng/mL
same,Serum FSH ng/ml SEM,21 day old female rats; 150 ng/rat sc,1076 ± 185 ng/mL
same,Serum LH ng/ml SEM,21 day old female rats; 150 ng/rat sc,17 ± 3 ng/mL
same,Serum FFSH ng/ml ± SEM,21 day old female rats; [9],475 ± 43 ng/mL
same,Serum LH ng/ml ± SEM,21 day old female rats; [9],1.3 ± 0.2 ng/mL
same,Serum FFSH ng/ml ± SEM,21 day old female rats; [10],572 ± 68 ng/mL
same,Serum LH ng/ml ± SEM,21 day old female rats; [10],3.2 ± 0.3 ng/mL
same,Serum FFSH ng/ml ± SEM,21 day old female rats; [11],839 ± 73 ng/mL
same,Serum LH ng/ml ± SEM,21 day old female rats; [11],12 ± 3 ng/mL
same,LH ng/ml Serum ± SEM ± 15 min,"21 day old female rats; Table VII, dosage 100 mg/rat sc (so in the source), ± 15 min",49 ± 10 ng/mL
same,LH ng/ml Serum ± SEM ± 60 min,"21 day old female rats; Table VII, dosage 100 mg/rat sc (so in the source), ± 60 min",5.5 ± 0.9 ng/mL
same,Serum FSH ng/ml ± SEM,21 day old female rats; [12],1147 ± 489 ng/mL
same,Serum LH ng/ml ± SEM,21 day old female rats; [12],21.0 ± 4.0 ng/mL
same,Serum FSH ng/ml ± SEM,21 day old female rats; [13],2228 ± 448 ng/mL
same,Serum LH ng/ml ± SEM,21 day old female rats; [13],53.9 ± 9.0 ng/mL
same,Serum FSH ng/ml ± SEM,21 day old female rats; [14],1536 ± 172 ng/mL
same,Serum LH ng/ml ± SEM,21 day old female rats; [14],62.0 ± 21.0 ng/mL
same,Serum FSH ng/ml ± SEM,21 day old female rats; [15],2448 ± 209 ng/mL
same,Serum LH ng/ml ± SEM,21 day old female rats; [15],39.0 ± 17 ng/mL
same,+2 hrs LH ± SEM ng/ml serum,21 day old female rats; 150 ng sc,.18 ± 0.07 ng/mL
same,FSH ± SEM ng/ml serum (+2 hrs),21 day old female rats; 150 ng sc,337 ± 20 ng/mL
same,+3 hrs LH ± SEM ng/ml serum,21 day old female rats; 150 ng sc,0.66 ± 0.46 ng/mL
same,FSH ± SEM ng/ml serum (+3 hrs),21 day old female rats; 150 ng sc,487 ± 72 ng/mL
same,FSH released,21 day old female rats; dosage of 15 ng,572 ± 68 ng
same,release of LH (in words),21 day old female rats; dosage of 15 ng,inactive
"CCNC(=O)[C@@H]1CCCN1C(=O)[C@H](CCCNC(=N)N)NC(=O)[C@H](CC(C)C)NC(=O)[C@@H](Cc1cccnc1)NC(=O)[C@H](Cc1ccc(O)cc1)NC(=O)[C@H](CO)NC(=O)[C@H](Cc1c[nH]c2ccccc12)NC(=O)[C@H](Cc1c[nH]cn1)NC(=O)[C@@H]1CCC(=O)N1 [Peptide 21436, pyroGlu-His-Trp-Ser-Tyr-D-3-Pal-Leu-Arg-Pro-NHC2 H5]",Serum FSH ng/ml SEM,21 day old female rats; 50 ng/rat sc,3471 ± 229 ng/mL
same,Serum LH ng/ml SEM,21 day old female rats; 50 ng/rat sc,116 ± 20 ng/mL
same,Serum FSH ng/ml SEM,21 day old female rats; 150 ng/rat sc,1458 ± 424 ng/mL
same,Serum LH ng/ml SEM,21 day old female rats; 150 ng/rat sc,144 ± 37 ng/mL
same,FSH ng/ml Serum ± SEM at +120 min,21 day old female rats; 50 ng/rat sc,4692 ± 393 ng/mL
same,LH ng/ml Serum ± SEM at +120 min,21 day old female rats; 50 ng/rat sc,291 ± 11 ng/mL
same,FSH ng/ml Serum ± SEM at +120 min,21 day old female rats; 150 ng/rat sc,4811 ± 782 ng/mL
same,LH ng/ml Serum ± SEM at +120 min,21 day old female rats; 150 ng/rat sc,278 ± 14 ng/mL
same,+2 hrs LH ± SEM ng/ml serum,21 day old female rats; 150 ng sc,237 ± 52 ng/mL
same,FSH ± SEM ng/ml serum (+2 hrs),21 day old female rats; 150 ng sc,2415 ± 361 ng/mL
same,+3 hrs LH ± SEM ng/ml serum,21 day old female rats; 150 ng sc,106 ± 13 ng/mL
same,FSH ± SEM ng/ml serum (+3 hrs),21 day old female rats; 150 ng sc,2205 ± 298 ng/mL
"CC(C)C[C@H](NC(=O)[C@@H](Cc1cccnc1)NC(=O)[C@H](Cc1ccc(O)cc1)NC(=O)[C@H](CO)NC(=O)[C@H](Cc1c[nH]c2ccccc12)NC(=O)[C@H](Cc1c[nH]cn1)NC(=O)[C@@H]1CCC(=O)N1)C(=O)N[C@@H](CCCNC(=N)N)C(=O)N1CCC[C@H]1C(=O)NCC(N)=O [D-Pal^6 -LHRH, pyroGlu-His-Trp-Ser-Tyr-D-3-Pal-Leu-Arg-Pro-GlyNH2]",FSH released into medium (ng/ml) ± SEM,[1]; [2],1062 ± 394
same,LH ng/ml medium ± SEM,[1]; [2],73 ± 10 ng/mL
same,FSH released into medium (ng/ml) ± SEM,[1]; [3],3109 ± 486
same,LH ng/ml medium ± SEM,[1]; [3],345 ± 72 ng/mL
same,FSH released into medium (ng/ml) ± SEM,[1]; [4],5126 ± 967
same,LH ng/ml medium ± SEM,[1]; [4],811 ± 182 ng/mL
same,FSH released into medium (ng/ml) ± SEM,[1]; [5],9637 ± 1490
same,LH ng/ml medium ± SEM,[1]; [5],1439 ± 233 ng/mL
same,"activity for the release of LH, D-Pal^6 -LHRH compared with D-Qal^6 -LHRH",[1]; [16],essentially equivalent
same,"release of FSH, D-Pal^6 -LHRH compared with D-Qal^6 -LHRH",[1]; [16],same essential equivalents
same,"potency, D-Pal^6 -LHRH compared with D-Trp^6 -LHRH",[1]; inferred from equivalence with D-Qal^6 -LHRH,essentially equipotent
same,Serum FSH ng/ml SEM,21 day old female rats; 50 ng/rat sc,3099 ± 361 ng/mL
same,Serum LH ng/ml SEM,21 day old female rats; 50 ng/rat sc,120 ± 16 ng/mL
same,Serum FSH ng/ml SEM,21 day old female rats; 150 ng/rat sc,3064 ± 677 ng/mL
same,Serum LH ng/ml SEM,21 day old female rats; 150 ng/rat sc,122 ± 19 ng/mL
same,Serum FFSH ng/ml ± SEM,21 day old female rats; [17],471 ± 128 ng/mL
same,Serum LH ng/ml ± SEM,21 day old female rats; [17],1.5 ± 0.3 ng/mL
same,Serum FFSH ng/ml ± SEM,21 day old female rats; [18],738 ± 71 ng/mL
same,Serum LH ng/ml ± SEM,21 day old female rats; [18],7 ± 1 ng/mL
same,Serum FFSH ng/ml ± SEM,21 day old female rats; [9],1270 ± 140 ng/mL
same,Serum LH ng/ml ± SEM,21 day old female rats; [9],43 ± 7 ng/mL
same,Serum FFSH ng/ml ± SEM,21 day old female rats; [10],2267 ± 342 ng/mL
same,Serum LH ng/ml ± SEM,21 day old female rats; [10],103 ± 8 ng/mL
same,Serum FSH ng/ml ± SEM,21 day old female rats; [12],1711 ± 644 ng/mL
same,Serum LH ng/ml ± SEM,21 day old female rats; [12],36 ± 9 ng/mL
same,Serum FSH ng/ml ± SEM,21 day old female rats; [14],1591 ± 588 ng/mL
same,Serum LH ng/ml ± SEM,21 day old female rats; [14],111 ± 16 ng/mL
same,Serum FSH ng/ml ± SEM,21 day old female rats; [19],1992 ± 379 ng/mL
same,Serum LH ng/ml ± SEM,21 day old female rats; [19],81.0 ± 17 ng/mL
same,Serum FSH ng/ml ± SEM,21 day old female rats; [15],6432 ± 2216 ng/mL
same,Serum LH ng/ml ± SEM,21 day old female rats; [15],106.0 ± 3 ng/mL
same,FSH ng/ml Serum ± SEM at +120 min,21 day old female rats; 50 ng/rat sc,3251 ± 485 ng/mL
same,LH ng/ml Serum ± SEM at +120 min,21 day old female rats; 50 ng/rat sc,111 ± 26 ng/mL
same,FSH ng/ml Serum ± SEM at +120 min,21 day old female rats; 150 ng/rat sc,5293 ± 686 ng/mL
same,LH ng/ml Serum ± SEM at +120 min,21 day old female rats; 150 ng/rat sc,216 ± 46 ng/mL
same,+2 hrs LH ± SEM ng/ml serum,21 day old female rats; 50 ng sc,108 ± 17 ng/mL
same,FSH ± SEM ng/ml serum (+2 hrs),21 day old female rats; 50 ng sc,1727 ± 222 ng/mL
same,+3 hrs LH ± SEM ng/ml serum,21 day old female rats; 50 ng sc,20 ± 2.3 ng/mL
same,FSH ± SEM ng/ml serum (+3 hrs),21 day old female rats; 50 ng sc,1312 ± 163 ng/mL
same,+2 hrs LH ± SEM ng/ml serum,21 day old female rats; 150 ng sc,144 ± 27 ng/mL
same,FSH ± SEM ng/ml serum (+2 hrs),21 day old female rats; 150 ng sc,2362 ± 293 ng/mL
same,+3 hrs LH ± SEM ng/ml serum,21 day old female rats; 150 ng sc,38 ± 6.3 ng/mL
same,FSH ± SEM ng/ml serum (+3 hrs),21 day old female rats; 150 ng sc,1617 ± 143 ng/mL
same,release of LH (in words),21 day old female rats; dosage of 5 ng,significantly released LH
same,FSH released,21 day old female rats; dosage of 15 ng,1270 ± 140 ng
same,LH released relative to LHRH,"21 day old female rats; dosage of 50 ng, corrected for the level of LH before addition of the peptides",~50 times
same,potency compared with LHRH when tested biologically,"21 day old female rats; summary statement, test not specified",significantly more potent than LHRH itself
